Experimental data: paper PMC3166647 (Analytical and bioanalytical chemistry, 2011)

Molecular target: T1, methionine aminopeptidase 1 (MetAP1) (Plasmodium yoelii, UniProt Q7RFT5)
T1 sequence (Q7RFT5 1-491): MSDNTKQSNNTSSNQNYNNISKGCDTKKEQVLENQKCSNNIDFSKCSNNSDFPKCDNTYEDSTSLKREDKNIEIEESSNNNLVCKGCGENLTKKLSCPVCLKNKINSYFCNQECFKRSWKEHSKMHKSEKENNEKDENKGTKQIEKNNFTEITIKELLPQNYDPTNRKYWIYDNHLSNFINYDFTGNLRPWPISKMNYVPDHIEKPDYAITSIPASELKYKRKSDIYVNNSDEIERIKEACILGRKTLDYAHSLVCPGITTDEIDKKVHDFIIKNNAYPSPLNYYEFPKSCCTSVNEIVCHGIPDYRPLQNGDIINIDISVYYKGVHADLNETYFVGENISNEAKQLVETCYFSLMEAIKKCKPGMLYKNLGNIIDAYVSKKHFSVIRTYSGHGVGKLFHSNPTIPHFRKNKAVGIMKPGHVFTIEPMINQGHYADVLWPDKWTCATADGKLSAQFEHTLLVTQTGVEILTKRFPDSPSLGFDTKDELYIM
Assay: competition ultrafiltration with HPLC-UV
Type: binding
Conditions: 4 °C; competes with fragments 4-9

CSCC[C@H](N)C(=O)O [methionine]
competition ultrafiltration with HPLC-UV: methionine was able to compete against lower-affinity ligands more efficiently than higher-affinity ligands
